# Data published in PubChem BioAssay AID2060890 (Molecular Pharmacology Branch, DTP, NCI, 2025).
# Tested on: LG0703-F948-PDC complex spheroid viability
# Test: Anticancer human tumor LG0703-F948-PDC patient-derived lung adenocarcinoma cell line growth inhibition [RAS]
# Conditions: for IC50: curve of first compound; for viability, T/C: stronger effect = lower value
# Method in brief: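 Tumour cells grown as complex spheroids with HUVEC endothelial cells and mesenchymal stem cells, treated with RAS pathway inhibitor combinations. Each agent spans half-log steps from near clinical Cmax, or 10 microM where Cmax is unknown.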
# [1] = second compound 0.000949 µM, first compound 0.0316 µM
# [2] = second compound 0.000949 µM, first compound 0.1 µM
# [3] = second compound 0.000949 µM, first compound 0.316 µM
# [4] = second compound 0.000949 µM, first compound 1 µM
# [5] = second compound 0.000949 µM, first compound 3.16 µM
# [6] = second compound 0.000949 µM, first compound 10 µM
# [7] = second compound 0.003 µM, first compound 0.0316 µM
# [8] = second compound 0.003 µM, first compound 0.1 µM
# [9] = second compound 0.003 µM, first compound 0.316 µM
# [10] = second compound 0.003 µM, first compound 1 µM
# [11] = second compound 0.003 µM, first compound 3.16 µM
# [12] = second compound 0.003 µM, first compound 10 µM
# [13] = second compound 0.00949 µM, first compound 0.0316 µM
# [14] = second compound 0.00949 µM, first compound 0.1 µM
# [15] = second compound 0.00949 µM, first compound 0.316 µM
# [16] = second compound 0.00949 µM, first compound 1 µM
# [17] = second compound 0.00949 µM, first compound 3.16 µM
# [18] = second compound 0.00949 µM, first compound 10 µM
# [19] = second compound 0.03 µM, first compound 0.0316 µM
# [20] = second compound 0.03 µM, first compound 0.1 µM
# [21] = second compound 0.03 µM, first compound 0.316 µM
# [22] = second compound 0.03 µM, first compound 1 µM
# [23] = second compound 0.03 µM, first compound 3.16 µM
# [24] = second compound 0.03 µM, first compound 10 µM
# [25] = second compound 0.0949 µM, first compound 0.0316 µM
# [26] = second compound 0.0949 µM, first compound 0.1 µM
# [27] = second compound 0.0949 µM, first compound 0.316 µM
# [28] = second compound 0.0949 µM, first compound 1 µM
# [29] = second compound 0.0949 µM, first compound 3.16 µM
# [30] = second compound 0.0949 µM, first compound 10 µM
# [31] = second compound 0.3 µM, first compound 0.0316 µM
# [32] = second compound 0.3 µM, first compound 0.1 µM
# [33] = second compound 0.3 µM, first compound 0.316 µM
# [34] = second compound 0.3 µM, first compound 1 µM
# [35] = second compound 0.3 µM, first compound 3.16 µM
# [36] = second compound 0.3 µM, first compound 10 µM
# 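Further: spheroids exposed to agents for 7 days.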
# 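Wherever viability, T/C is given: 100% = DMSO vehicle wells.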
smiles,measurement,setting,value
C[C@@H](NC(=O)c1ncnc(N)c1Cl)c1ncc(C(=O)Nc2cc(C(F)(F)F)c(Cl)cn2)s1 + CCn1c(-c2cc(N3CCN(C)CC3)cnc2C(C)OC)c2c3cc(ccc31)-c1csc(n1)CC(NC(=O)C1CC1C)C(=O)N1CCCC(N1)C(=O)OCC(C)(C)C2,IC50,second compound 0.000949 µM,> 10000 nM
same,IC50,second compound 0.003 µM,> 10000 nM
same,IC50,second compound 0.00949 µM,< 31.6 nM
same,IC50,second compound 0.03 µM,< 31.6 nM
same,IC50,second compound 0.0949 µM,< 31.6 nM
same,IC50,second compound 0.3 µM,< 31.6 nM
same,"viability, T/C",[1],74.7%
same,"viability, T/C",[2],78.6%
same,"viability, T/C",[3],79.2%
same,"viability, T/C",[4],76.4%
same,"viability, T/C",[5],83.9%
same,"viability, T/C",[6],75.6%
same,"viability, T/C",[7],54.3%
same,"viability, T/C",[8],46.9%
same,"viability, T/C",[9],52.8%
same,"viability, T/C",[10],65.1%
same,"viability, T/C",[11],55.5%
same,"viability, T/C",[12],68.9%
same,"viability, T/C",[13],31.6%
same,"viability, T/C",[14],28.8%
same,"viability, T/C",[15],28.1%
same,"viability, T/C",[16],30.3%
same,"viability, T/C",[17],33.8%
same,"viability, T/C",[18],39.8%
same,"viability, T/C",[19],17.5%
same,"viability, T/C",[20],17.6%
same,"viability, T/C",[21],16.1%
same,"viability, T/C",[22],17%
same,"viability, T/C",[23],21.2%
same,"viability, T/C",[24],21.5%
same,"viability, T/C",[25],15.8%
same,"viability, T/C",[26],9.99%
same,"viability, T/C",[27],11.8%
same,"viability, T/C",[28],13.7%
same,"viability, T/C",[29],15.9%
same,"viability, T/C",[30],13.7%
same,"viability, T/C",[31],11.7%
same,"viability, T/C",[32],11.5%
same,"viability, T/C",[33],13.1%
same,"viability, T/C",[34],9.77%
same,"viability, T/C",[35],14.9%
same,"viability, T/C",[36],15.3%
CC(=O)OC12COC1CC(O)C1(C)C(=O)C(O)C3=C(C)C(OC(=O)C(O)C(NC(=O)OC(C)(C)C)c4ccccc4)CC(O)(C(OC(=O)c4ccccc4)C21)C3(C)C (stereo unspecified) + CCn1c(-c2cccnc2C(C)OC)c2c3cc(ccc31)N1CCOC(CC(NC(=O)C(C(C)C)N(C)C(=O)C3(F)CCN(C(=O)C#CC(C)(C)N(C)C)CC3)C(=O)N3CCCC(N3)C(=O)OCC(C)(C)C2)C1,IC50,second compound 0.000949 µM,< 31.6 nM
same,IC50,second compound 0.003 µM,< 31.6 nM
same,IC50,second compound 0.00949 µM,< 31.6 nM
same,IC50,second compound 0.03 µM,< 31.6 nM
same,IC50,second compound 0.0949 µM,< 31.6 nM
same,IC50,second compound 0.3 µM,< 31.6 nM
same,"viability, T/C",[1],40.1%
same,"viability, T/C",[2],36.8%
same,"viability, T/C",[3],36.3%
same,"viability, T/C",[4],39.4%
same,"viability, T/C",[5],44.2%
same,"viability, T/C",[6],41%
same,"viability, T/C",[7],37.7%
same,"viability, T/C",[8],35.4%
same,"viability, T/C",[9],41.1%
same,"viability, T/C",[10],42.1%
same,"viability, T/C",[11],38.7%
same,"viability, T/C",[12],35.6%
same,"viability, T/C",[13],36.5%
same,"viability, T/C",[14],36.7%
same,"viability, T/C",[15],36.6%
same,"viability, T/C",[16],40.9%
same,"viability, T/C",[17],49.5%
same,"viability, T/C",[18],46.9%
same,"viability, T/C",[19],33.5%
same,"viability, T/C",[20],35.5%
same,"viability, T/C",[21],36.5%
same,"viability, T/C",[22],40.3%
same,"viability, T/C",[23],42.5%
same,"viability, T/C",[24],34%
same,"viability, T/C",[25],39%
same,"viability, T/C",[26],32.7%
same,"viability, T/C",[27],33.4%
same,"viability, T/C",[28],34%
same,"viability, T/C",[29],35.6%
same,"viability, T/C",[30],37.1%
same,"viability, T/C",[31],28.5%
same,"viability, T/C",[32],22.3%
same,"viability, T/C",[33],22.4%
same,"viability, T/C",[34],23.4%
same,"viability, T/C",[35],23.7%
same,"viability, T/C",[36],20.9%
Nc1ccn(C2OC(CO)C(O)C2(F)F)c(=O)n1 (stereo unspecified) + CCn1c(-c2cc(N3CCN(C)CC3)cnc2C(C)OC)c2c3cc(ccc31)-c1csc(n1)CC(NC(=O)C1CC1C)C(=O)N1CCCC(N1)C(=O)OCC(C)(C)C2,IC50,second compound 0.000949 µM,6.69 nM
same,IC50,second compound 0.003 µM,< 3.16 nM
same,IC50,second compound 0.00949 µM,< 3.16 nM
same,IC50,second compound 0.03 µM,< 3.16 nM
same,IC50,second compound 0.0949 µM,< 3.16 nM
same,IC50,second compound 0.3 µM,< 3.16 nM
same,"viability, T/C","second compound 0.000949 µM, first compound 0.00316 µM",65.9%
same,"viability, T/C","second compound 0.000949 µM, first compound 0.01 µM",42.5%
same,"viability, T/C",[1],33.1%
same,"viability, T/C",[2],40.5%
same,"viability, T/C",[3],39.5%
same,"viability, T/C",[4],36.2%
same,"viability, T/C","second compound 0.003 µM, first compound 0.00316 µM",46.4%
same,"viability, T/C","second compound 0.003 µM, first compound 0.01 µM",31.9%
same,"viability, T/C",[7],34.1%
same,"viability, T/C",[8],28.7%
same,"viability, T/C",[9],29.6%
same,"viability, T/C",[10],32.8%
same,"viability, T/C","second compound 0.00949 µM, first compound 0.00316 µM",22.8%
same,"viability, T/C","second compound 0.00949 µM, first compound 0.01 µM",18.3%
same,"viability, T/C",[13],17.4%
same,"viability, T/C",[14],13.7%
same,"viability, T/C",[15],19.2%
same,"viability, T/C",[16],18.3%
same,"viability, T/C","second compound 0.03 µM, first compound 0.00316 µM",10.1%
same,"viability, T/C","second compound 0.03 µM, first compound 0.01 µM",11.4%
same,"viability, T/C",[19],15.6%
same,"viability, T/C",[20],14.2%
same,"viability, T/C",[21],14.9%
same,"viability, T/C",[22],10.5%
same,"viability, T/C","second compound 0.0949 µM, first compound 0.00316 µM",12.6%
same,"viability, T/C","second compound 0.0949 µM, first compound 0.01 µM",8.4%
same,"viability, T/C",[25],9.27%
same,"viability, T/C",[26],9.86%
same,"viability, T/C",[27],8.62%
same,"viability, T/C",[28],8.16%
same,"viability, T/C","second compound 0.3 µM, first compound 0.00316 µM",10.5%
same,"viability, T/C","second compound 0.3 µM, first compound 0.01 µM",7.77%
same,"viability, T/C",[31],11%
same,"viability, T/C",[32],6.54%
same,"viability, T/C",[33],6.46%
same,"viability, T/C",[34],5.98%
